Key:
H9c2 cells [1] = assay: Mn-SOD activity of H9c2 cells injured by H2O2; type: cell-based; conditions: H2O2 injured H9c2; SPRC Low Dose 10^−7 mol/L
Experimental: H9c2 cells were cultured same as Example 12, the cells were then divided into the groups same as Example 12.
The cells were lysed under sterilized condition, and lipid peroxidation experiments on the samples were performed. […] The effect of SPRC could be blocked by PAG, indicating SPRC mediates its effect on H9c2 cell by way of endogenous H2S.

CSE mRNA = assay: RT-PCR of CSE mRNA in left ventricle; type: in vivo, SD rats; conditions: MI rats, 50 mg/Kg/day
Text: (§1) Animals were assigned and prepared the same as in Example 7, and dosages of SPRC and SAC were used the same in this example as in Example 7.
To further verify the effects of SPRC and SAC, the expressions of Bcl-2, Bax and CSE mRNA were accessed by RT-PCR (FIG. 17). An isoform of the CSE gene was detected (GenBank; access no. AY641456). The relative amounts of CSE mRNA in Left ventricular subjected to MI were increase 3.3-fold and 1.5-fold following SPRC and SAC exposure as compared to the MI group.

CSE = target: T1, CSE (Rattus norvegicus, UniProt P18757); assay: Left ventricular CSE activity in tissue homogenates of rats; type: in vivo, SD rats; conditions: 50 mg/Kg/day; for CSE activity: left ventricle
T1 construct: from tissue; host or cells: rat left ventricle (homogenate), myocardial infarction model
Experimental: as §1
(§2) The plasma levels of H2S in each treatment group were determined since CSE mediates the endogenous production of H2S in mammals. Plasma H2S concentrations in MI group rats at 48 h after MI induction were 34.7±5.6 μM (n=8). […] Left ventricular CSE activity was analyzed in the tissue homogenates from each treatment group (n=6). CSE activity was 1.58±0.15 μmol/g protein/hr in left the ventricular tissues in MI group and 2.19±0.32 μmol/g protein/hr in the MI+SAC treated rats.
SPRC administered rats had the highest CSE activity of 2.58±0.07 μmol/g protein/hr (p<0.01) (FIG. 15B). This observation correlated with the observed increases in H2S concentrations in the same treatment groups.

H9c2 cells [2] = assay: H9c2 cell viability by MTT method after H2O2 injury; type: cell-based; conditions: H2O2 200 μmol/L 2 hours; SPRC Low Dose 10^−7 mol/L
Experimental: H9c2 cells were cultured in DMEM with 10% of fetal bovine serum, 37 degree C. and 5% CO2 incubator. The monolayer culture was split at a 1:4 ratio or harvested to perform experiments when confluence was 70-80%. Adjust the density of the cells to […] and inoculate the cells on a 96 well plate.
Control group, no SAC analogues treatment, no H2O2 injured process.
H2O2 injury (Model) group, no SAC analogues treatment, under H2O2 200 μmol/L for 2 hours.
PAG group, PAG 10^−4/mol/L
SPRC dosage groups: SPRC 1E-7, SPRC 1E-6, SPRC 1E-5, the cell groups were treated with SPRC dosages of 10^−7 mol/L, 10^−6 mol/L, 10^−5 mol/L respectively.
SPRC dosage+PAG groups: the cell group was treated with SPRC dosages of 10^−5 mol/L and PAG 10^−4 mol/L.
H9c2 cell viability was assessed by MTT method. […] PAG is able to block the effect of SPRC.

rats following MI injury [3] = assay: Plasma H2S levels in rats (sham or MI); type: in vivo, SD rats; conditions: 50 mg/Kg/day intraperitoneal
Experimental: as §1, §2

rats following MI injury [4] = assay: Serum LDH in rats (sham or MI); type: in vivo, SD rats; conditions: Sham rats; 50 mg/Kg/day intraperitoneal
Experimental: as §1
Serum CK levels were detected with diagnostic kit (NJBI, China) according to the instructions. LDH were determined calorimetrically with a spectrophotometer. Lipid peroxidation was measured in terms of MDA content using the thiobarbituric acid (TBA) assay. […] With regard to lipid peroxidation, the levels of MDA in MI groups increased at 48 h after myocardial infarction. […] (FIG. 14)

myocardial cells = assay: Lipid peroxidation (MDA, TBA) in hypoxia/reoxygenation injured myocardial cells; type: cell-based, Sprague-Dawley (SD) rat; conditions: 10^−5 mol/L
Experimental: Myocardial cell samples were obtained from the same procedure of Example 1, the experiment groups were divided and hypoxia/reoxygenation experiments were performed on Control group, Vehicle group, SAC and analogue groups, same as the experiments in Example 1 with the same dosages and same conditions. Myocardial cells were obtained from each sample (10^6 myocardial cells/sample) from the Control group, Vehicle group, SAC and analogue groups. The cells were lysed under sterilized condition, and lipid peroxidation experiments on the samples were performed. Since oxygen free radical attacks poly unsaturated fatty acid in biomembrane, inducing lipid peroxidation and producing MDA (malondialdehyde). MDA can react with thiobarbituric acid (TBA), forms red product, which can be detected in spectrophotometer at 532 nm. […] The inhibition effect could be reversed by PAG.

rats following MI injury [5] = assay: Infarct size after TTC staining in rats following MI injury; type: in vivo, SD rats; conditions: 50 mg/Kg/day intraperitoneal, 7 days before and 2 days after ligation, 48 h after surgery, saline 36.0±1.3%
Experimental: SPRC and SAC were dissolved in saline (vehicle). Male SD rats (weight 200-250 g) were randomly assigned to […] treatment groups: group (1) Sham group: Sham-treated with saline (n=4), (2) Sham+SPRC group: Sham-treated with SPRC (50 mg/Kg/day) (n=4), (3) Sham+SAC group: Sham-treated with SAC (50 mg/Kg/day) (n=4), (4) MI group: MI treated with saline (n=8), (5) MI+SPRC group: MI treated with SPRC (50 mg/Kg/day) (n=8), (6) MI+SAC group: MI treated with SAC (50 mg/Kg/day) (n=8). Rats were pre-treated for seven days with each SAC analogues respectively via an intraperitoneal injection once daily before they were used for MI model studies. […] Briefly, the rats were anesthetized with 7% choral hydrate (60 mg/kg intraperitoneal injection), endotracheally intubated and mechanically ventilated with room air, respiratory rate 100 breaths/min, tidal volume 2.5 ml with a rodent ventilator (DHX-150, China). ECG was recorded in the anaesthetized animal for a period of one minute using the Animal Mflab200 amplifier (Produced in China). A left thoracotomy was performed and the third intercostal space was exposed. […] Then incisions were sutured and the chests were closed. […] Forty eight hours after the surgery, ECG was recorded for each rat in each group. […] To evaluate the effect of SPRC and SAC on MI, infarct size were measured after TTC staining (FIG. 12).

T1 sequence (P18757 whole entry): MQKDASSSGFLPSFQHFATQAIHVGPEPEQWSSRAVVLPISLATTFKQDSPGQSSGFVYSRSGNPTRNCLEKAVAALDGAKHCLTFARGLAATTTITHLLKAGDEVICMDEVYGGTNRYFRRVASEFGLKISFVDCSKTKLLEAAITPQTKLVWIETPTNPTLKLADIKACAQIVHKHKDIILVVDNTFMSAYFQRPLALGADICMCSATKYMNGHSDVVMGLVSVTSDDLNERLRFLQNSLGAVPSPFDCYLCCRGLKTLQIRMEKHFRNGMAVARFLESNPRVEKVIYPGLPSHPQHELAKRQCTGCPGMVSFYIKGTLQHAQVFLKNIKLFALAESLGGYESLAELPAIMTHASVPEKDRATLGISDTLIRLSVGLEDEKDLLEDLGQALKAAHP

SMILES: C#CCSC[C@H](N)C(=O)O [SPRC, S-propargyl-cysteine]
- Mn-SOD Activity (H9c2 cells [1]): 8.75 ± 0.68 U/mgprot
- relative amounts of CSE mRNA, increase as compared to the MI group (CSE mRNA): 3.3 fold
- CSE activity (CSE; MI rats): 2.58 ± 0.07 μM/mgprot
- Left ventricular CSE activity (CSE; MI rats, left ventricular tissue homogenates, MI group 1.58±0.15): 2.58±0.07 μmol/g protein/hr
- CSE activity (CSE; Sham rats): 2.41 ± 0.12 μM/mgprot
- H9c2 Cell Survive (H9c2 cells [2]): 62.4 ± 1.6%
- H2S concentration in plasma (rats following MI injury [3]; MI rats, 48 h after MI induction, 50 mg/kg/day): 91.6 ± 7.6 µM
- H2S concentration in plasma (rats following MI injury [3]; Sham rats): 67.2 ± 6.4 µM
- LDH (rats following MI injury [4]): 2612 ± 189 U/L
- lipid peroxidation (MDA) (myocardial cells): inhibited
- infarct size/total area of myocardium (rats following MI injury [5]): 20.8±2.4%

Reference: patent publication US8623919B2, “Method of synthesizing S-allyl-cysteine analogues and their therapeutic application in treating myocardial infarction” (Fudan University, priority 2007, dated 2014)
